Source: patent US20210127673A1, “HERBICIDES” (SYNGENTA PARTICIPATIONS AG, priority 2016, published 2021)

Experiments:
Format in all cases: in vivo
Conditions in all cases: evaluated after 13 days
[1] = test system: Echinochloa crus-galli (ECHCG); assay: Pre-emergence herbicidal activity, Echinochloa crus-galli; design: key: 5=total damage to plant; 0=no damage to plant
Summary of the method: (§1)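 Pre-emergence spray, 1 d after sowing; formulation acetone/water 50:50 + 0.5% Tween 20. Glasshouse 24/16 °C, 14 h light, 65% RH, watered twice daily. Damage scored day 13, 0 (none) to 5 (total).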

Avena fatua (AVEFA) [2] = assay: Post-emergence herbicidal activity, Avena fatua
Summary of the method: (§2)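 Each value is a visual damage score from 0 (no effect) to 5 (plant killed), assessed 13 days after a foliar spray applied to 8-day-old plants. The compound was applied in acetone/water 50:50 with 0.5% Tween 20 under controlled glasshouse conditions.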

[3] = test system: Triticum aestivium (TRZAW); assay: Post-emergence herbicidal activity, Triticum aestivium; design: key: 5=total damage to plant; 0=no damage to plant
Summary of the method: as §2

Avena fatua (AVEFA) [4] = assay: Pre-emergence herbicidal activity, Avena fatua; design: key: 5=total damage to plant; 0=no damage to plant
Summary of the method: as §1

Setaria faberi (SETFA) [5] = assay: Pre-emergence herbicidal activity, Setaria faberi; design: key: 5=total damage to plant; 0=no damage to plant
Summary of the method: as §1

[6] = test system: Triticum aestivium (TRZAW); assay: Pre-emergence herbicidal activity, Triticum aestivium; design: key: 5=total damage to plant; 0=no damage to plant
Summary of the method: as §1

Lolium perenne (LOLPE) [7] = assay: Pre-emergence herbicidal activity, Lolium perenne; design: key: 5=total damage to plant; 0=no damage to plant
Summary of the method: as §1

[8] = test system: Alopecurus myosuroides (ALOMY); assay: Post-emergence herbicidal activity, Alopecurus myosuroides; design: key: 5=total damage to plant; 0=no damage to plant
Summary of the method: as §2

Setaria faberi (SETFA) [9] = assay: Post-emergence herbicidal activity, Setaria faberi; design: key: 5=total damage to plant; 0=no damage to plant
Summary of the method: as §2

[10] = test system: Alopecurus myosuroides (ALOMY); assay: Pre-emergence herbicidal activity, Alopecurus myosuroides; design: key: 5=total damage to plant; 0=no damage to plant
Summary of the method: as §1

[11] = test system: Echinochloa crus-galli (ECHCG); assay: Post-emergence herbicidal activity, Echinochloa crus-galli; design: key: 5=total damage to plant; 0=no damage to plant
Summary of the method: as §2

Lolium perenne (LOLPE) [12] = assay: Post-emergence herbicidal activity, Lolium perenne
Summary of the method: as §2

| Structure (SMILES) | Control of ECHCG after pre-emergence application (score 0-5) ([1]; 1000 g/ha) | Control of AVEFA after post-emergence application (score 0-5) (Avena fatua (AVEFA) [2]; 1000 g/ha) | Control of TRAZW after post-emergence application (score 0-5) ([3]; 1000 g/ha) | Control of AVEFA after pre-emergence application (score 0-5) (Avena fatua (AVEFA) [4]; 1000 g/ha) | Control of SETFA after pre-emergence application (score 0-5) (Setaria faberi (SETFA) [5]; 1000 g/ha) | Control of TRAZW after pre-emergence application (score 0-5) ([6]; 1000 g/ha) | Control of LOLPE after pre-emergence application (score 0-5) (Lolium perenne (LOLPE) [7]; 1000 g/ha) | Control of ALOMY after post-emergence application (score 0-5) ([8]; 1000 g/ha) | Control of SETFA after post-emergence application (score 0-5) (Setaria faberi (SETFA) [9]; 1000 g/ha) | Control of ALOMY after pre-emergence application (score 0-5) ([10]; 1000 g/ha) | Control of ECHCG after post-emergence application (score 0-5) ([11]; 1000 g/ha) | Control of LOLPE after post-emergence application (score 0-5) (Lolium perenne (LOLPE) [12]; 1000 g/ha) | other results |
| --- | --- | --- | --- | --- | --- | --- | --- | --- | --- | --- | --- | --- | --- |
| O=C(Nc1ccc(-c2cncc(F)c2)nc1C(F)(F)F)OCc1ccccc1 [Compound B53] | 2 | 4 | 1 | 1 | 4 | 0 | 1 | 1 | 5 | 0 | 5 | 2 | – |
| CON(C)C(=O)Nc1ccc(-c2cncc(F)c2)nc1C(F)(F)F [Compound B111] | 3 | 2 | 0 | 2 | 3 | 0 | 0 | 0 | 4 | 0 | 3 | 1 | – |
| N#CC1(NC(=O)Nc2ccc(-c3cncc(F)c3)nc2C(F)(F)F)CCC1 [Compound B81] | 5 | 3 | 1 | 1 | 5 | 0 | 1 | 1 | 5 | 1 | 5 | 2 | – |
| CCCCNC(=O)Nc1ccc(-c2cncc(F)c2)nc1C(F)(F)F [Compound B106] | – | – | – | – | – | – | – | – | – | – | – | – | Control of ECHCG after pre-emergence application (score 0-5) ([1]; 250 g/ha): 1; Control of AVEFA after post-emergence application (score 0-5) (Avena fatua (AVEFA) [2]; 250 g/ha): 3; Control of TRAZW after post-emergence application (score 0-5) ([3]; 250 g/ha): 0; Control of AVEFA after pre-emergence application (score 0-5) (Avena fatua (AVEFA) [4]; 250 g/ha): 1; Control of SETFA after pre-emergence application (score 0-5) (Setaria faberi (SETFA) [5]; 250 g/ha): 5; Control of TRAZW after pre-emergence application (score 0-5) ([6]; 250 g/ha): 0; Control of LOLPE after pre-emergence application (score 0-5) (Lolium perenne (LOLPE) [7]; 250 g/ha): 1; Control of ALOMY after post-emergence application (score 0-5) ([8]; 250 g/ha): 0; Control of SETFA after post-emergence application (score 0-5) (Setaria faberi (SETFA) [9]; 250 g/ha): 5; Control of ALOMY after pre-emergence application (score 0-5) ([10]; 250 g/ha): 0; Control of ECHCG after post-emergence application (score 0-5) ([11]; 250 g/ha): 3; Control of LOLPE after post-emergence application (score 0-5) (Lolium perenne (LOLPE) [12]; 250 g/ha): 1 |
| CN(C(N)=O)c1ccc(-c2cncc(F)c2)nc1C(F)(F)F [Compound B72] | 2 | 1 | 1 | 0 | 4 | 0 | 0 | 1 | 4 | 0 | 4 | 1 | – |
| CC(C)(C)OC(=O)Nc1ccc(-c2cncc(Cl)c2)nc1C(F)(F)F [Compound B6] | 3 | 3 | 1 | 2 | 5 | 0 | 1 | 1 | 5 | 1 | 4 | 4 | – |
| CC(C)(C)COC(=O)Nc1ccc(-c2cncc(F)c2)nc1C(F)(F)F [Compound B91] | – | – | – | – | – | – | – | – | – | – | – | – | Control of ECHCG after pre-emergence application (score 0-5) ([1]; 250 g/ha): 2; Control of AVEFA after post-emergence application (score 0-5) (Avena fatua (AVEFA) [2]; 250 g/ha): 2; Control of TRAZW after post-emergence application (score 0-5) ([3]; 250 g/ha): 0; Control of AVEFA after pre-emergence application (score 0-5) (Avena fatua (AVEFA) [4]; 250 g/ha): 1; Control of SETFA after pre-emergence application (score 0-5) (Setaria faberi (SETFA) [5]; 250 g/ha): 5; Control of TRAZW after pre-emergence application (score 0-5) ([6]; 250 g/ha): 1; Control of LOLPE after pre-emergence application (score 0-5) (Lolium perenne (LOLPE) [7]; 250 g/ha): 1; Control of ALOMY after post-emergence application (score 0-5) ([8]; 250 g/ha): 0; Control of SETFA after post-emergence application (score 0-5) (Setaria faberi (SETFA) [9]; 250 g/ha): 5; Control of ALOMY after pre-emergence application (score 0-5) ([10]; 250 g/ha): 0; Control of ECHCG after post-emergence application (score 0-5) ([11]; 250 g/ha): 2; Control of LOLPE after post-emergence application (score 0-5) (Lolium perenne (LOLPE) [12]; 250 g/ha): 1 |
| CN1CCN(C(=O)Nc2ccc(-c3cncc(F)c3)nc2C(F)(F)F)CC1 [Compound B48] | 3 | 2 | 0 | 1 | 4 | 0 | 1 | 0 | 5 | 0 | 4 | 1 | – |
| O=C(Nc1ccc(-c2cncc(F)c2)nc1C(F)(F)F)N1CCSC1 [Compound B68, N-[6-(5-fluoro-3-pyridyl)-2-(trifluoromethyl)-3-pyridyl]thiazolidine-3-carboxamide] | 3 | 3 | 2 | 2 | 4 | 0 | 1 | 0 | 5 | 1 | 5 | 2 | – |
| CCCOC(=O)Nc1ccc(-c2cncc(F)c2)nc1C(F)(F)F [Compound B42] | 4 | 4 | 2 | 3 | 5 | 0 | 1 | 1 | 5 | 1 | 5 | 3 | – |
| O=C(Nc1ccc(-c2cncc(F)c2)nc1C(F)(F)F)N1CCCCC1 [Compound B51] | 2 | 3 | 0 | 1 | 5 | 0 | 1 | 0 | 5 | 0 | 4 | 3 | – |
| CC(C)(C)OC(=O)Nc1ccc(-c2cncc(C#N)c2)nc1C(F)(F)F [Compound B7] | 2 | 4 | 1 | 1 | 5 | 0 | 1 | 1 | 5 | 0 | 4 | 2 | – |
